For ten compounds, Activity observed %, Leaf attack % and inhibition results are on record in patent US20090023687A1, “Method for Controlling Phytopathogenic Organisms” (SYNGENTA CROP PROTECTION, INC., priority 2005, published 2009).

Read-outs that look alike come from different tables or passages of the source.

Holding throughout (format): in vivo
Assay [1] relates to Phakopsora pachyrhizi. In words: Leaf disc test with Phakopsora pachyrhizi on glyphosate sensitive soybean, leaf disks treated (Example 4). From the text:
(§1) A synergistic effect exists whenever the action of an active ingredient combination is greater than the action expected from the effect of the individual components.
(§2) The action to be expected (E) for a given active ingredient combination obeys the so-called COLBY formula and can be calculated as follows (COLBY, S. R. “Calculating synergistic and antagonistic responses of herbicide combination”. Weeds, Vol. 15, pages 20-22; 1967):
(§3) ppm=milligrams of active ingredient (=a.i.) per litre of spray mixture X=% action by active ingredient I using p ppm of active ingredient Y=% action by active ingredient II using q ppm of active ingredient.
(§4) According to Colby, the expected (additive) action of active ingredients I+II using p+q ppm of active ingredient is
(§5) If the action actually observed (O) is greater than the expected action (E), then the action of the combination is superadditive, i.e. there is a synergistic effect.
(§6) A series of leaf disc tests were conducted to show the effects of tank mixtures of glyphosate and pesticides or plant activators on Asian soybean rust. The soybean variety tested was brand Williams82 glyphosate sensitive soybean. The leaf source for the testing was the first trifoliate leaf. Six (6) repetitions for each formulation and at each rate were conducted. Treatment of the leaf disks with the recited active ingredients was conducted 4 weeks after planting. The leaves were inoculated with Phakopsora pachyrhizi (Asian soybean rust (ASR)) one (1) day after treatment. Evaluation of the leaf was conducted ten (10) days after inoculation and the mean percent infestation of the six repetitions is reported in Tables 8-11.
As glyphosate source Touchdown® HiTech or Zapp® QI was used. The fungicides were used as commercial formulations: Bion® WG50 plant activator comprising acibenzolar-S-methyl (Syngenta Corp.), Opus® SC125 fungicide comprising epoxiconazole commercially (BASF AG), Tilt® EC250 fungicide comprising propiconazole (Syngenta Corp.), Quadris® SC250 fungicide comprising azoxystrobin (Syngenta Corp.). The rates of the active ingredients used in the tests are set in Tables 8-11 as mg active ingredient (a.i.)/L.

Assay [2] relates to Phakopsora pachyrhizi. Briefly: whole plant or invertebrate. Conditions: in Glycine max, foliar, read-out: % activity observed.
Source text: as §1, §2, §3, §4, §5
as §6, with “the ortho-substituted phenyl-amide (OPA) fungicides represented by structures F-5 and F-9” for “pesticides or plant activators”, “leaf” for “leaf disks”, “3 and 4.” for “8-11.”
The glyphosate source was Touchdown® HiTech herbicide (Syngenta Corp.), containing the potassium salt of glyphosate and no adjuvant system. The compound OPA F-5 used was a compound of formula F-5, wherein the ratio of racemic compounds of formula F-3 (syn) to racemic compounds of formula F-4 (anti) was 9:1. The compound OPA F-9 used was a compound of formula F-9, wherein the ratio of racemic compounds of formula F-7 (trans) to racemic compounds of formula F-8 (cis) was around 100:1. The fungicides used were EC100 formulations of OPA F-5 and OPA F-9 which are emulsion concentrates containing 100 ga.i./L. The rates of the active ingredients used in the tests are set in the table as mg active ingredient (a.i.)/L.

In another assay the test system is Puccinia recondita. In words: Greenhouse trial with Puccinia recondita on glyphosate sensitive wheat (Example 3). The following applies: read-out: % activity observed.
Source text: as §1, §2, §3, §4, §5
Greenhouse tests were conducted to show the effects of tank mixtures of glyphosate and the ortho-substituted phenyl-amide (OPA) fungicides represented by structures F-10, F-5 and F-9 on cereal rust Puccinia recondita. The wheat variety tested was brand Kanzler glyphosate sensitive wheat. Three (3) repetitions for each formulation and at each rate were conducted. Treatment of the plants with the recited active ingredients was conducted preventatively 16 days after planting. The leaves were inoculated with Puccinia recondita one (1) day after treatment. Evaluation of the leaf was conducted […] after inoculation and the mean percent infestation of the three repetitions is reported in Tables 5-7.
The glyphosate source was Zapp® QI herbicide containing the potassium salt of glyphosate as well as an adjuvant system. The compound OPA F-5 used was a compound of formula F-5, wherein the ratio of racemic compounds of formula F-3 (syn) to racemic compounds of formula F-4 (anti) was 9:1. The compound OPA F-9 used was a compound of formula F-9, wherein the ratio of racemic compounds of formula F-7 (trans) to racemic compounds of formula F-8 (cis) was around 100:1. The fungicides used were EC 100 formulations of OPA F-10, OPA F-5 and OPA F-9 which are emulsion concentrates containing 100 ga.i./L. The rates of the active ingredients used in the tests are set in Tables 5-7 as mg active ingredient (a.i.)/L.

For assay [3], the system named is Phakopsora pachyrhizi. In words: Application on whole plants: leaf disc test with Phakopsora pachyrhizi on glyphosate sensitive soybean (Example 5).
Source text: as §1, §2, §3, §4, §5
(§7) A series of leaf disc tests were conducted to show the effects of tank mixtures of glyphosate and pesticides or plant activators on Asian soybean rust. The soybean variety tested was brand Williams82 glyphosate sensitive soybean. The leaf source for the testing was the first trifoliate leaf. Six (6) repetitions for each formulation and at each rate were conducted. Treatment of whole plants with the recited active ingredients was conducted 4 weeks after planting. After application, leaf disks were cut and inoculated with Phakopsora pachyrhizi (Asian soybean rust (ASR)) one (1) day after treatment. Evaluation of the leaf was conducted ten (10) days after inoculation and the mean percent infestation of the six repetitions is reported in Tables 12-14.
As glyphosate source Touchdown® HiTech or Zapp® QI was used. The fungicides were used as commercial formulations: Cantus® WG50 fungicide comprising boscalid (BASF AG), Quadris® SC250 fungicide and Bion® WG50 plant activator comprising acibenzolar-S-methyl. The rates of the active ingredients used in the tests are set in Tables 12-14 as g active ingredient (a.i.)/hectare (ha). The spray volume was 200 l/ha.

Assay [4] has as its system Phakopsora pachyrhizi. Briefly: Application on whole plants: leaf disc test with Phakopsora pachyrhizi on glyphosate tolerant soybean (Example 6).
Source text: as §1, §2, §3, §4, §5
as §7, with “Leaf” for “A series of leaf”, “S40-R9” for “Williams82”, “tolerant” for “sensitive”, “[…]” for “of whole plants with the recited active ingredients was conducted 4 weeks after planting. After”, “15-17.” for “12-14.”
As glyphosate source Touchdown® HiTech or Zapp® QI was used. The fungicides were used as commercial formulations: Bravo® SC500 fungicide comprising chlorothalonil (Syngenta Corp.), Score® EC250 fungicide comprising difenaconazole (Syngenta Corp.) and Mancozeb 80WP fungicide comprising mancozeb. The rates of the active ingredients used in the tests are set in Tables 15-17 as g active ingredient (a.i.)/hectare (ha). The spray volume was 200 l/ha.

Setting [5] is: Epoxiconazole Opus SC125 0.2 mg a.i./L.
[6] abbreviates: Acibenzolar Bion WG50 10 g a.i./ha.
[7] abbreviates: Acibenzolar Bion WG50 60 g a.i./ha.
Where [8] appears, read: Acibenzolar Bion WG50 6.7 mg a.i./L.
[9] abbreviates: Acibenzolar Bion WG50 20 mg a.i./L.
Where [10] appears, read: Azoxystrobin Quadris SC250 50 g a.i./ha.
[11] abbreviates: Azoxystrobin Quadris SC250 100 g a.i./ha.
The mark [12] stands for this setting: Azoxystrobin Quadris SC250 0.2 mg a.i./L.
Where [13] appears, read: Azoxystrobin Quadris SC250 0.7 mg a.i./L.
The mark [14] stands for this setting: Boscalid Cantus WG50 250 g a.i./ha.
Setting [15] is: Boscalid Cantus WG50 500 g a.i./ha.
The mark [16] stands for this setting: Chlorothalonil Bravo SC500 83.3 g a.i./ha.
The mark [17] stands for this setting: Chlorothalonil Bravo SC500 1500 g a.i./ha.
The mark [18] stands for this setting: Difenoconazole Score EC250 5 g a.i./ha.
Where [19] appears, read: Difenoconazole Score EC250 15 g a.i./ha.
[20] abbreviates: Propiconazole Tilt EC250 0.7 mg a.i./L.

`Fc1ccc([C@]2(Cn3cncn3)O[C@H]2c2ccccc2Cl)cc1` (racemic) [Epoxiconazole, epoxiconazole]: in the assay with Phakopsora pachyrhizi [1] (setting [5]), the Activity observed % amounted to 19% and the Leaf attack % is 62%.

Consider `Cn1cc(C(=O)Nc2ccccc2C2CC2C2CC2)c(C(F)F)n1` (racemic) [OPA F-9], for which the inhibition at 0.2 µg/mL in the assay on Phakopsora pachyrhizi [2] (OPA F-9 0.2 mg a.i./L) came to 0%. In addition, the inhibition at 0.7 µg/mL with Phakopsora pachyrhizi [2] (OPA F-9 0.7 mg a.i./L) was determined as 0%. The inhibition at 2.2 µg/mL with Phakopsora pachyrhizi [2] (OPA F-9 2.2 mg a.i./L) stood at 24%. For the same compound, in the assay with Phakopsora pachyrhizi [2] (OPA F-9 6.7 mg a.i./L), the inhibition at 6.7 µg/mL was 74%. In addition, the inhibition at 20 µg/mL with Phakopsora pachyrhizi [2] (OPA F-9 20 mg a.i./L) was 100%. Further, the inhibition at 6.6 µg/mL in the assay on Puccinia recondita (OPA F-9 6.6 mg a.i./L) came to 81.9%.

As to `CSC(=O)c1cccc2nnsc12` [Acibenzolar, acibenzolar-S-methyl], the Activity observed % with Phakopsora pachyrhizi [3] (setting [6]) is reported as 19%; in the assay on Phakopsora pachyrhizi [3] (setting [7]) it was 31%; in the assay with Phakopsora pachyrhizi [1] (setting [8]), 0%; in the assay with Phakopsora pachyrhizi [1] (setting [9]) it was 10%. Also, the Leaf attack % with Phakopsora pachyrhizi [3] (setting [6]) stood at 50%; in the assay with Phakopsora pachyrhizi [3] (setting [7]) it was 43%; in the assay on Phakopsora pachyrhizi [1] (setting [8]), 74%; with Phakopsora pachyrhizi [1] (setting [9]), 62%.

In the case of `CO/C=C(/C(=O)OC)c1ccccc1Oc1cc(Oc2ccccc2C#N)ncn1` [Azoxystrobin, azoxystrobin], the Activity observed % came to 0% with Phakopsora pachyrhizi [3] (setting [10]), 29% in the assay on Phakopsora pachyrhizi [3] (setting [11]), 15% with Phakopsora pachyrhizi [1] (setting [12]) and 60% with Phakopsora pachyrhizi [1] (setting [13]). The Leaf attack % with Phakopsora pachyrhizi [3] (setting [10]) is reported as 62%; in the assay on Phakopsora pachyrhizi [3] (setting [11]), 44%; in the assay with Phakopsora pachyrhizi [1] (setting [12]), 68%; with Phakopsora pachyrhizi [1] (setting [13]) it was 32%.

With `O=C(Nc1ccccc1-c1ccc(Cl)cc1)c1cccnc1Cl` [Boscalid, boscalid], the Activity observed % in the assay on Phakopsora pachyrhizi [3] (setting [14]) is recorded as 7%; in the assay on Phakopsora pachyrhizi [3] (setting [15]), 19%. The Leaf attack % in the assay on Phakopsora pachyrhizi [3] (setting [14]) stood at 58%; with Phakopsora pachyrhizi [3] (setting [15]), 50%.

As for `N#Cc1c(Cl)c(Cl)c(Cl)c(C#N)c1Cl` [Chlorothalonil, chlorothalonil], the results for the Activity observed % in the assay on Phakopsora pachyrhizi [4] (setting [16]) and with Phakopsora pachyrhizi [4] (setting [17]) were 0% and 17%, respectively. Further, the Leaf attack % in the assay on Phakopsora pachyrhizi [4] (setting [16]) came out at 80%; in the assay on Phakopsora pachyrhizi [4] (setting [17]), 50%.

On to `CC1COC(Cn2cncn2)(c2ccc(Oc3ccc(Cl)cc3)cc2Cl)O1` (centres unmarked) [Difenoconazole, difenaconazole], for which, in the assay with Phakopsora pachyrhizi [4] (setting [18]), the Activity observed % is recorded as 0% and the Leaf attack % is recorded as 50%. For the same compound, in the assay with Phakopsora pachyrhizi [4] (setting [19]), the Activity observed % is 0% and the Leaf attack % amounted to 50%.

With `Cn1cc(C(=O)Nc2ccccc2-c2ccc(C#CC(C)(C)C)cc2)c(C(F)F)n1` [OPA F-10], the inhibition at 2.2 µg/mL in the assay on Puccinia recondita (OPA F-10 2.2 mg a.i./L) turned out to be 0%. Further, in the assay on Puccinia recondita (OPA F-10 6.6 mg a.i./L), the inhibition at 6.6 µg/mL stood at 0%.

Consider `CCCC1COC(Cn2cncn2)(c2ccc(Cl)cc2Cl)O1` (centres unmarked) [Propiconazole, propiconazole], for which, in the assay with Phakopsora pachyrhizi [1] (setting [20]), the Activity observed % was 4% and the Leaf attack % is 74%.

With mancozeb, in the assay with Phakopsora pachyrhizi [4] (Mancozeb WP80 750 g a.i./ha), the Activity observed % is 47% and the Leaf attack % was determined as 32%. Further, in the assay on Phakopsora pachyrhizi [4] (Mancozeb WP80 1500 g a.i./ha), the Activity observed % amounted to 37% and the Leaf attack % came to 38%.
